By IC50 is commonly meant the concentration that inhibits the measured activity by half.

One test deals with GM01896 cells (MPS II dermal fibroblasts). In words: Assay 1: MPS cellular assay, MPS II (heparan sulfate disaccharide biomarkers by LC-MS). Format: cell-based, human. The note with it: Assay 1 for MPS II, heparan sulfate disaccharide biomarkers (I2a4, I2a6, I2S0 and/or I2S6), read-out: IC50 Range. The protocol:
Dermal fibroblasts from humans with an MPS disorder and from healthy donors are grown. Cells are expanded and kept in culture for analysis. Human foreskin fibroblasts can be obtained from the American Type Culture Collection (CRL-1634). Human dermal fibroblasts derived from biopsies of individuals are purchased from Coriell Institute: clinically healthy individuals, GM00408, GM00409, GM00200 (clinically unaffected sibling of an individual with metachromatic leukodystrophy), GM05659, GM08398, and GM15871 (clinically unaffected sibling of an individual with unclassified Ehlers-Danlos syndrome); heterozygous MPS I carriers, GM01392, GM01393 and GM0003; homozygous individuals affected with MPS I, GM06214, GM11495, GM00034, GM01391 and GM01256; individuals with MPS II, GM01896, GM03181, GM00615 and GM00298; individuals with MPS IIIA, GM00879, GM00643, GM00934, GM06110 and GM00629; MPS IIIB, GM01426; MPS IIIC, GM05157; MPS IIID, GM05093; and MPS VII, GM00121. All cells are grown in DMEM containing 50 U ml-1 penicillin, […] ml-1 streptomycin, 2 mM glutamine and 10% FBS. Cells are seeded on 15-cm-diameter tissue culture dishes, grown to confluence and maintained in culture for analysis. Sulfamidase activity in cell extracts is measured with 4-methylumbelliferyl-α-D-N-sulfoglucosaminide according the vendors instructions substituting Tris-acetate buffer (pH 6.5; Moscerdam).
Cells are treated with a compound of the invention at a concentration at or below 30 μM for 4 to 21 days. Cell monolayers are washed with phosphate buffered saline and detached by treatment with GIBCO trypsin-EDTA solution (Invitrogen). After centrifugation, the supernatant is removed and the cells are lysed in 0.5 mL of 0.1 N sodium hydroxide. The amount of protein is determined by bicinchoninic acid (BCA assay, Thermo Scientific). GAGs are isolated by anion exchange chromatography and digested with glycosaminoglycan lyases (heparinases I, II, and III, IBEX).
Enzymatically depolymerized GAG preparations are differentially mass labeled by reductive amination with [^12C6]aniline. Briefly, heparan sulfate disaccharides (1-10 pmol) are dried down in a centrifugal evaporator and reacted with [^12C6]aniline or [^13C6]aniline (15 μL, 165 μmol) and 15 μL of 1 M NaCNBH3 (Sigma-Aldrich) freshly prepared in dimethylsulfoxide/acetic acid (7:3, v/v) is added to each sample. Reactions are carried out at 37° C. for 16 h and then dried in a centrifugal evaporator. Unsubstituted amines are reacted with propionic anhydride (Sigma-Aldrich). Dried samples are reconstituted in 20 μL of 50% methanol, and 3 μL of propionic anhydride (Sigma-Aldrich, 23.3 μmol) is added. Reactions are carried out at ˜23° C. for 2 h. Acylated disaccharides are subsequently aniline tagged as described above. Each sample is mixed with commercially available standard unsaturated disaccharides (Seikagaku), standard N-sulfoglucosamine, glucosamine-6-sulfate, N-acetylgalactosamine-4-sulfate and N-acetylgalactosamine-6-sulfate (Sigma-Aldrich), and/or synthesized α-L-idopyranosyluronate-(1,4)-2-N-acetyl-2-deoxy-α/β-D-glucopyranoside (I0S0). All standards are tagged with [^13C6]aniline (Sigma-Aldrich). Samples are then analyzed by LC-MS using an LTQ Orbitrap Discovery electrospray ionization mass spectrometer (Thermo Scientific) equipped with quaternary HPLC pump (Finnigan Surveyor MS pump) and a reverse-phase capillary column as described in J. Biol. Chem. 2008, 283(48), 33674.
MPS II: Assay 1, as described above, was used to determine activity for MPS II using GM01896 cells. […] Extracted ion chromatograms were obtained. Cell viability was monitored using alamar blue or ATP quantification. IC50's were calculated using curve fitting within the ChemInnovation CBIS database system.
For the molecule `CN(C)CCCn1cnc2cc(-c3cc(Nc4ccc(Cl)cc4)nc(N4CCOCC4)n3)ccc21` [[3-(5-{6-[(4-chlorophenyl)amino]-2-morpholin-4-ylpyrimidin-4-yl}benzimidazolyl)propyl]dimethylamine], the IC50 lay within 0.5 to 1 µM. For `Cc1nn(C)c2cc(-c3cc(Nc4ccc5nn(C)nc5c4)nc(N4CCOCC4)n3)ccc12` [[6-(1,3-dimethyl(1H-indazol-6-yl))-2-morpholin-4-ylpyrimidin-4-yl](2-methyl(2-hydrobenzotriazol-5-yl))amine], the half-inhibitory concentration (IC50) is 1 to 5 µM.

The test is the same for the next values; noted with them: Homo sapiens, Fibroblast, Assay 1 for MPS II, heparan sulfate disaccharide biomarkers (I2a4, I2a6, I2S0 and/or I2S6), read-out: IC50 Range.
Consider `Cn1cc2cc(Nc3cc(-c4ccc5cnn(C)c5c4)nc(N4CCOCC4)n3)ccc2n1` [[6-(1-methyl(1H-indazol-6-yl))-2-morpholin-4-ylpyrimidin-4-yl](2-methyl(2H-indazol-5-yl))amine], for which the concentration for half-maximal inhibition (IC50) lay within 1 to 5 µM. Take `CNC(=O)c1ccc(Nc2cc(-c3ccc4cnn(C)c4c3)nc(N3CCOCC3)n2)cc1` [N-methyl(4-{[6-(1-methyl(1H-indazol-6-yl))-2-morpholin-4-ylpyrimidin-4-yl]amino}phenyl)carboxamide]: the IC50 was under 0.5 µM.

In the case of `Cn1nc(CN2CCOCC2)c2ccc(-c3cc(Nc4ccc(Cl)cc4)nc(N4CCOCC4)n3)cc21` [(4-chlorophenyl){6-[1-methyl-3-(morpholin-4-ylmethyl)(1H-indazol-6-yl)]-2-morpholin-4-ylpyrimidin-4-yl}amine], the IC50 lay in the range of 1 to 5 µM. In the case of `Cn1nc(CN2CCCC2)c2ccc(-c3cc(Nc4ccc(Cl)cc4)nc(N4CCOCC4)n3)cc21` [(4-chlorophenyl){6-[1-methyl-3-(pyrrolidinylmethyl)(1H-indazol-6-yl)]-2-morpholin-4-ylpyrimidin-4-yl}amine], the IC50 lay in the range of 0.5 to 1 µM. Turning to `Cc1nn(C)c2cc(-c3cc(Nc4ccc(-c5ncc[nH]5)cc4)nc(N4CCOCC4)n3)ccc12` [[6-(1,3-dimethyl(1H-indazol-6-yl))-2-morpholin-4-ylpyrimidin-4-yl](4-imidazol-2-ylphenyl)amine], the IC50 was under 0.5 µM. As for `Cn1ncc2ccc(-c3cc(Nc4ccc(Cl)cc4)nc(N4CCOCC4)n3)nc21` [(4-chlorophenyl)[6-(1-methylpyrazolo[4,5-e]pyridin-6-yl)-2-morpholin-4-ylpyrimidin-4-yl]amine], the half-inhibitory concentration (IC50) was 1 to 5 µM. Take `Cn1ncc2ccc(-c3cc(Nc4ccc5nnn(C)c5c4)nc(N4CCOCC4)n3)cc21` [[6-(1-methyl(1H-indazol-6-yl))-2-morpholin-4-ylpyrimidin-4-yl](1-methylbenzotriazol-6-yl)amine]: the half-inhibitory concentration (IC50) was 1 to 5 µM. On the same count and under the same terms, the figure for `Cn1ccc2ccc(Nc3cc(-c4ccc5c(CCCN6C(=O)c7ccccc7C6=O)nn(C)c5c4)nc(N4CCOCC4)n3)cc21` [2-[3-(1-methyl-6-{6-[(1-methylindol-6-yl)amino]-2-morpholin-4-ylpyrimidin-4-yl}-1H-indazol-3-yl)propyl]benzo[c]azoline-1,3-dione] is under 0.5 µM. For the molecule `Cc1nc2cc(-c3cc(Nc4ccc(Cl)cc4)nc(N4CCOCC4)n3)ccc2n1C1COC1` [(4-chlorophenyl)[6-(2-methyl-1-oxetan-3-ylbenzimidazol-5-yl)-2-morpholin-4-ylpyrimidin-4-yl]amine], the 50% inhibitory concentration (IC50) is under 0.5 µM. `Cc1nn(C)c2cc(-c3cc(Nc4ccc(Cl)cc4)nc(N4CCOCC4)n3)cnc12` [[6-(1,3-dimethylpyrazolo[4,5-b]pyridin-6-yl)-2-morpholin-4-ylpyrimidin-4-yl](4-chlorophenyl)amine]: the IC50 lay in the range of 0.5 to 1 µM.

For `Cn1cccc1-c1ccc(Nc2cc(-c3ccc4c(CCN5CCOCC5)nn(C)c4c3)nc(N3CCOCC3)n2)cc1` [{6-[1-methyl-3-(2-morpholin-4-ylethyl)(1H-indazol-6-yl)]-2-morpholin-4-ylpyrimidin-4-yl}[4-(1-methylpyrrol-2-yl)phenyl]amine], the IC50 is under 0.5 µM.

`CNC(=O)c1ccc(Nc2cc(-c3ccc4ncn(CC5CC5)c4c3)nc(N3CCOCC3)n2)cc1` [[4-({6-[1-(cyclopropylmethyl)benzimidazol-6-yl]-2-morpholin-4-ylpyrimidin-4-yl}amino)phenyl]-N-methylcarboxamide]: the half-maximal inhibitory concentration (IC50) is under 0.5 µM.

For `Cn1cnc2ccc(-c3cc(Nc4ccc(NC(=O)OC(C)(C)C)cc4)nc(N4CCOCC4)n3)cc21` [(tert-butoxy)-N-(4-{[6-(1-methylbenzimidazol-6-yl)-2-morpholin-4-ylpyrimidin-4-yl]amino}phenyl)carboxamide], the IC50 fell in the range of 1 to 5 µM. On to `Cc1nnc(-c2ccc(Nc3cc(-c4cnc5cnn(C)c5c4)nc(N4CCOCC4)n3)cc2)[nH]1` [[4-(5-methyl(4H-1,2,4-triazol-3-yl))phenyl][6-(1-methylpyrazolo[4,5-b]pyridin-6-yl)-2-morpholin-4-ylpyrimidin-4-yl]amine], for which the IC50 was under 0.5 µM.

`COCCn1ncc2ccc(-c3cc(Nc4ccc(Cl)cc4)nc(N4CCOCC4)n3)cc21` [(4-chlorophenyl){6-[1-(2-methoxyethyl)(1H-indazol-6-yl)]-2-morpholin-4-ylpyrimidin-4-yl}amine]: the half-maximal inhibitory concentration (IC50) lay within 1 to 5 µM. Consider `Cn1nc(CCN2CCOCC2)c2ccc(-c3cc(Nc4ccc(-c5ccn[nH]5)cc4)nc(N4CCOCC4)n3)cc21` [{6-[1-methyl-3-(2-morpholin-4-ylethyl)(1H-indazol-6-yl)]-2-morpholin-4-ylpyrimidin-4-yl}(4-pyrazol-5-ylphenyl)amine], for which the IC50 was under 0.5 µM.

Take `Cn1c(CCN2CCOCC2)nc2ccc(-c3cc(Nc4ccc(Cl)cc4)nc(N4CCOCC4)n3)cc21` [(4-chlorophenyl){6-[1-methyl-2-(2-morpholin-4-ylethyl)benzimidazol-6-yl]-2-morpholin-4-ylpyrimidin-4-yl}amine]: the IC50 is under 0.5 µM. On to `Cn1ncc2ccc(-c3cc(Nc4ccc(C5=NCCO5)cc4)nc(N4CCOCC4)n3)cc21` [[6-(1-methyl(1H-indazol-6-yl))-2-morpholin-4-ylpyrimidin-4-yl](4-(1,3-oxazolin-2-yl)phenyl)amine], for which the half-inhibitory concentration (IC50) was 1 to 5 µM. As to `Cc1nn(C)c2cc(-c3cc(Nc4ccc(-c5ncon5)cc4)nc(N4CCOCC4)n3)ccc12` [[6-(1,3-dimethyl(1H-indazol-6-yl))-2-morpholin-4-ylpyrimidin-4-yl](4-(1,2,4-oxadiazol-3-yl)phenyl)amine], the half-maximal inhibitory concentration (IC50) lay within 0.5 to 1 µM. The same measure, in the same setting: the figure for `CN(C)CCc1nc2cc(Cc3cc(Nc4ccc(Cl)cc4)nc(N4CCOCC4)n3)ccc2[nH]1` [[2-(6-{6-[(4-chlorophenyl)amino]-2-morpholin-4-ylpyrimidin-4-yl}methylbenzimidazol-2-yl)ethyl]dimethylamine] is under 0.5 µM; for `CN1CCN(c2nn(C)c3cc(-c4cc(Nc5ccc(Cl)cc5)nc(N5CCOCC5)n4)ccc23)CC1` [(4-chlorophenyl){6-[1-methyl-3-(4-methylpiperazinyl)(1H-indazol-6-yl)]-2-morpholin-4-ylpyrimidin-4-yl}amine] it is 1 to 5 µM; for `Cn1ncc2ccc(-c3cc(Nc4ccc(-c5nnc(C6CC6)[nH]5)cc4)nc(N4CCOCC4)n3)cc21` [[4-(5-cyclopropyl(4H-1,2,4-triazol-3-yl))phenyl][6-(1-methyl(1H-indazol-6-yl))-2-morpholin-4-ylpyrimidin-4-yl]amine] it is under 0.5 µM. For `Cn1cnc2ccc(-c3cc(Nc4ccc(C#N)cc4)nc(N4CCOCC4)n3)cc21` [4-{[6-(1-methylbenzimidazol-6-yl)-2-morpholin-4-ylpyrimidin-4-yl]amino}benzenecarbonitrile], the IC50 is 1 to 5 µM.

These data come from patent US20190151312A1, “HEPARAN SULFATE BIOSYNTHESIS INHIBITORS FOR THE TREATMENT OF DISEASES” (BioMarin Pharmaceutical Inc., priority 2014, published 2019).
